Assay results from the supplement of paper PMC10290057.
“And” between values parts separate entries of the source, which are not always exact repeats. Identical values can stand only once. Counter-ions that a name gives are not always drawn.
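Also: Luminescence-based viability readout, five doses per compound, normalized against on-plate DMSO and empty-well controls, followed by dose-response curve fitting for every drug.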

These compounds were tested on HCT116 (assay: efficacy (fitted maximal change in viability relative to DMSO control); higher = less cytotoxic (negative = loss of viability)). Conditions: 48 h.
Compound `Cc1ccc(NC(=O)[C@H]2CCCN(C(=O)c3c(C)cccc3F)[C@H]2c2ccc(NC3CCCC3)cc2)cc1C(F)(F)F` [Avacopan] has an efficacy of -27.6%. Compound `NC(=O)[C@@H](CCC(F)(F)F)N(Cc1ccc(-c2ncon2)cc1F)[S+](=O)([O-])c1ccc(Cl)cc1` [Avagacestat] has an efficacy of -65.8%. Compound `COc1ccc(C(=O)CC(=O)c2ccc(C(C)(C)C)cc2)cc1` [Avobenzone] has an efficacy of -43.1%. With `CN1C(=O)COc2c(C(=O)NC3CN4CCC3CC4)cc(Cl)cc21` (stereo unspecified) [Azasetron hydrochloride] the efficacy was 21.5%. Work on `CC[C@H]1OC(=O)[C@H](C)[C@@H](O[C@H]2C[C@@](C)(OC)[C@@H](O)[C@H](C)O2)[C@H](C)[C@@H](O[C@@H]2O[C@H](C)C[C@H](N(C)C)[C@H]2O)[C@](C)(O)C[C@@H](C)CN(C)[C@H](C)[C@@H](O)[C@]1(C)O` [Azithromycin] yielded an efficacy of -20.7%. `CCOc1ccccc1N/N=C1/C(=O)N(c2nc(-c3ccccc3)cs2)N=C1C` [BAM-7] was tested, and the efficacy was -7.98%. `O=C(O)CC(C(=O)O)N1C(=O)/C(=C2/C(=O)Nc3ccc(Br)cc32)SC1=S` (stereo unspecified) [BCL6 Inhibitor] showed an efficacy of -11.7%. With `CN(C)CCN(C)CCc1ccc(Cl)c(Cl)c1` [BD-1047] the efficacy was -29.2%. `C[C@H]1CC2[C@@H]3CCC/4=C/C(=O)/C=C\[C@]4(C)[C@@]3(F)[C@@H](O)C[C@]2(C)[C@@]1(O)C(=O)CO` (stereo partly specified) [BETAMETHASONE] was tested, and the efficacy was -11.5%. In the case of `O=C(Nc1cccc(C(F)(F)F)c1)c1cccc2cc(Oc3cc(CO)ncn3)ccc12` [BFH-772], the efficacy is reported as 15.5%. For `N/C(=N\OCC(O)CN1CCCCC1)c1cccnc1` (stereo unspecified) [BGP-15], the efficacy was -14.5%. With `OC1=CC=C2\C3=C(CNCC3)/C(=O)OC2=C1C4OCCCO4` [BI09] the efficacy was 9.24%. In the case of `CC[C@@H]1C(=O)N(C)c2cnc(Nc3ccc(C(=O)NC4CCN(C)CC4)cc3OC)nc2N1C1CCCC1` [BI-2536], the efficacy is reported as -71.6%. For `COC1=CC(=CC(=C1CN(C)C)OC)\C2=C\N(C)C(=O)C3=C2C=CN=C3` [BI-7273], the efficacy was -29.9%. For `C/C(=C\C(=O)Nc1ccccc1C(=O)O)c1ccc2ccccc2c1` [BIBR-1532], the efficacy was -69.1%. `C=CC(=O)N[C@H]1CCOC[C@H]1Nc1ncc2cc(-c3c(Cl)c(OC)cc(OC)c3Cl)ccc2n1` [BLU-554] gave an efficacy of -30.8%. For `C=CC(=O)Nc1cccc(C)c1Nc1ncc2cc(-c3c(Cl)c(OC)cc(OC)c3Cl)ccc2n1` [BLU-9931], the efficacy was -50.4%. `C[N]1N=CN=C1[C@@H]2[C@H](NC3=CC(=CC4=C3\C2=N/NC4=O)F)C5=CC=C(F)C=C5` [BMN-673] was tested, and the efficacy was -16.8%. Compound `CCNC(=O)Nc1ncc(-c2cc(-c3c(C)cc(OC)cc3C)nc(-c3cnccn3)n2)s1` [BMS-4] has an efficacy of 14%. For `CN(CC(=O)N(Cc1ccc(C2CCCCC2)cc1)c1ccc(C(=O)O)c(O)c1)[S+](=O)([O-])c1c(F)c(F)c(F)c(F)c1F` [BP-1-102], the efficacy was -10.2%. In the case of `O=C(Cc1ccccc1)Nc1nnc(CCSCCc2nnc(NC(=O)Cc3ccccc3)s2)s1` [BPTES], the efficacy is reported as -25%. With `CC(C)C[C@@H]1NC(=O)[C@@H](C(C)C)NC(=O)[C@@H]2CCCN2C(=O)[C@@H](CC(=O)O)NC(=O)[C@@H](Cc2c[nH]c3ccccc23)NC1=O` [BQ-123] the efficacy was -9.37%. `C[N]1N=C(C)C2=C1OC(=C(/C#N)C2C3=CC=C(C=C3)C(F)(F)F)/N` (stereo unspecified) [BQU-57] was tested, and the efficacy was -30.8%. With `CC(C)c1cnn2c(NCc3ccccc3)cc(NCCCCCCN)nc12` [BS-181] the efficacy was -106%. For `Cc1c(Cl)cccc1[S+](=O)([O-])Nc1nc(CCN2CCOCC2=O)cs1` [BVT-3498], the efficacy was -14.1%. Compound `O=C(NCCCNc1nc(Nc2cccc(NC(=O)N3CCCC3)c2)ncc1I)c1cccs1` [BX-795] has an efficacy of -76.5%. For `CCC(C)C(N)\C1=N\C(CS1)C(=O)N[C@@H](CC(C)C)C(=O)N[C@H](CCC(O)=O)C(=O)N[C@@H]([C@@H](C)CC)C(=O)N[C@H]2CCCCNC(=O)[C@H](CC(N)=O)NC(=O)[C@@H](CC(O)=O)NC(=O)[C@H](CC3=CN=C[NH]3)NC(=O)[C@@H](CC4=CC=CC=C4)NC(=O)[C@@H](NC(=O)[C@@H](CCCN)NC2=O)[C@@H](C)CC` (stereo partly specified) [Bacitracin (Zinc)], the efficacy was -26.9%. For `OC1=CC2=C(C(=O)\C=C(/O2)C3=CC=CC=C3)C(=C1O)O` [Baicalein], the efficacy was -14.7%. `CNC1CCCN(C1)C2=C(F)C=C3C(=O)\C(=C/N(C4CC4)C3=C2OC)C(O)=O` (stereo unspecified) [Balofloxacin] gave an efficacy of -10.2%. With `O=C(O)CCNC(=O)c1ccc(/N=N/c2ccc(O)c(C(=O)O)c2)cc1` [Balsalazide disodium] the efficacy was -11.7%. For `Cc1onc(-c2ccc(F)cc2)c1COc1ccc(C(=O)N2CC[S+](=O)([O-])CC2)cn1` [Basmisanil], the efficacy was -18.7%. `CNC(=O)[C@H](Cc1ccccc1)NC(=O)[C@H](CC(C)C)[C@H](CSc1cccs1)C(=O)NO` [Batimastat] showed an efficacy of -46.2%. For `CCOC(=O)[C@H](CCc1ccccc1)N[C@H]1CCc2ccccc2N(CC(=O)O)C1=O` [Benazepril], the efficacy was -8.42%. `Cl.NC(CO)C(=O)NNCc1ccc(O)c(O)c1O` (stereo unspecified) [Benserazide] was tested, and the efficacy was -65.3%. Compound `CCCCC(=O)O[C@@]1([C@@H](C)C[C@H]2[C@@H]3CCC/4=C/C(=O)/C=C\[C@]4(C)[C@@]3(F)[C@@H](O)C[C@]12C)C(=O)CO` [Betamethasone valerate] has an efficacy of -7.12%. `CC(C)NCC(O)COc1ccc(CCOCC2CC2)cc1` (stereo unspecified) [Betaxolol] gave an efficacy of -9.42%. `CC(C[N+](C)(C)C)OC(N)=O` (stereo unspecified) [Bethanechol chloride] was tested, and the efficacy was -25.8%. With `C=C(C)[C@@H]1CC[C@]2(C(=O)O)CC[C@]3(C)[C@H](CC[C@@H]4[C@@]5(C)CC[C@H](O)C(C)(C)[C@@H]5CC[C@]43C)[C@@H]12` [Betulinic acid] the efficacy was 14.5%. `C=C(c1ccc(C(=O)O)cc1)c1cc2c(cc1C)C(C)(C)CCC2(C)C` [Bexarotene] gave an efficacy of -19.6%. Work on `CC(O)(C[S+](=O)([O-])c1ccc(F)cc1)C(=O)Nc1ccc(C#N)c(C(F)(F)F)c1` (stereo unspecified) [Bicalutamide] yielded an efficacy of -14.2%. In the case of `CCNC(=O)CCC/C=C\C[C@@H]1[C@@H](/C=C/C(O)CCc2ccccc2)[C@@H](O)C[C@@H]1O` (stereo partly specified) [Bimatoprost], the efficacy is reported as -24.4%. `COC1=CC=C(C=C1)C/2=C/OC3=C(C(=CC(=C3)O)O)C2=O` [Biochanin A] was tested, and the efficacy was -34.7%. `N=C1S/C(=C\c2ccc(-c3ccc4c(c3)C(=O)NC4=O)o2)C(=O)N1c1ccc(Br)cc1` [Bioymifi] was tested, and the efficacy was -15.3%. `OC(CCN1CCCCC1)(C2CC\3CC2\C=C3)C4=CC=CC=C4` (stereo unspecified) [Biperiden] gave an efficacy of -34.7%. `CC[C@H](NC(=O)[C@H](C)NC)C(=O)N1C[C@@H](O)C[C@H]1Cc1c(-c2[nH]c3cc(F)ccc3c2C[C@@H]2C[C@H](O)CN2C(=O)[C@H](CC)NC(=O)[C@H](C)NC)[nH]c2cc(F)ccc12` [Birinapant] showed an efficacy of -49.9%. `CC/C(=C(/c1ccc(/C=C/C(=O)O)cc1)c1ccc2[nH]ncc2c1)c1ccc(F)cc1Cl` [Brilanestrant] was tested, and the efficacy was -35.5%. `CCCCCCCCCCCCCCCCOCCCO[P](O)(=O)COC(CO)CN1/C=C\C(=N/C1=O)N` (stereo unspecified) [Brincidofovir] gave an efficacy of -6.44%. In the case of `CN(Cc1cc(Br)cc(Br)c1N)C1CCCCC1` [Bromhexine hydrochloride], the efficacy is reported as -27.2%. With `CCCCOc1ccc(CC(=O)NO)cc1` [Bufexamac] the efficacy was -14.9%. With `COc1cc(OC)c(C(=O)CCCN2CCCC2)c(OC)c1` [Buflomedil hydrochloride] the efficacy was -7.04%. In the case of `CCCCNc1cc(C(=O)O)cc([S+](N)(=O)[O-])c1Oc1ccccc1` [Bumetanide], the efficacy is reported as -7.8%. With `C[S+](=O)([O-])OCCCCO[S+](C)(=O)[O-]` [Busulfan] the efficacy was -5.76%. With `C=C1C(=O)OC(CCCCCCCC)C1C(=O)O` (stereo unspecified) [C75] the efficacy was -6.41%. `CC1=NN(c2ccc(C(=O)O)cc2)C(=O)/C1=C/c1ccc(-c2cc(C)c(C)cc2[N+](=O)[O-])o1` [C-646] showed an efficacy of -21%. `O=C(NCc1ccccc1)[C@H](Cc1ccccc1)NC(=O)[C@H]1O[C@@H]1C(=O)NCCc1ccc(O)cc1` [CAA-0225] gave an efficacy of -24.8%. `CN1\C=C(/N=C(NC2=CC=C(C=C2)C(=O)N3CCOCC3)\C1=O)C4=C(C)C(=CC=C4)NC(=O)C5=CC=C(C=C5)C(C)(C)C` [CGI-1746] showed an efficacy of -29.2%. In the case of `Clc1ccc(-c2nc3sccn3c2/C=N/OCc2ccc(Cl)c(Cl)c2)cc1` [CITCO], the efficacy is reported as -19.4%. `CC(C)C/1=C(NC2=C(C=N[N]2C1=O)C#N)\C3=CC=CC=C3` [CPI-455] showed an efficacy of -11.2%. `O=C(O)CCCCC(CCSCc1ccccc1)SCc1ccccc1` (stereo unspecified) [CPI-613] showed an efficacy of -19.4%. For `CC(=O)Nc1ccc(C(=O)NC(C)(C)C)cc1` [CPI-1189], the efficacy was -10.3%. With `COC/1=C(\CNC(=O)C2=C(C)[N]([C@H](C)C3CCN(CC3)CC(F)(F)F)C4=C2C=CC=C4)C(=O)N/C(=C1)C` [CPI-1205] the efficacy was -27.1%. For `CCC/1=C(/NC2=C(C=N[N]2C1=O)C#N)C3=CC=CC=C3C` [CPI-4203], the efficacy was 17.2%. `CN[C@@H](C)C(=O)N[C@H](C(=O)N1CCC[C@H]1C(=O)Nc1sc(-c2ncco2)nc1-c1ccccc1)C1CCCCC1` [CUDC-427] was tested, and the efficacy was -17%. With `CCCn1c(=O)c2[nH]c(-c3cnn(Cc4cccc(C(F)(F)F)c4)c3)nc2n(CC)c1=O` [CVT-6883] the efficacy was -14.4%. `Cc1nc(C)c(CN2CCN(C(c3ccc(F)cc3)c3ccc(F)cc3)CC2)nc1C` [CXC-195] gave an efficacy of -77.3%. With `C=C1/C(=C\C=C2/CCC[C@]3(C)[C@@H]([C@H](C)CCCC(C)(C)O)CC[C@@H]23)C[C@@H](O)C[C@@H]1O` [Calcitriol] the efficacy was -65% and -62.8%. With `N/C1=N/C(=O)C/2=C(NC[C@@H](CNC3=CC=C(C=C3)C(=O)N[C@@H](CCC([O-])=O)C([O-])=O)N2C=O)\N1` [Calcium folinate] the efficacy was -9.49%. `CCCC[C@@H](C=O)NC(=O)[C@H](CC(C)C)NC(=O)OCc1ccccc1` [Calpeptin] was tested, and the efficacy was -29.4%. `CC[C@@]1(O)C(=O)OC\C2=C1\C=C\3N(CC4=C3N=C5C=CC=CC5=C4)C2=O` [Camptothecin] gave an efficacy of -65.5%. In the case of `CNC(=O)c1ccc(-c2cnc3ncc(Cc4ccc5ncccc5c4)n3n2)cc1F` [Capmatinib], the efficacy is reported as -28.8%. With `COc1cc(CNC(=O)CCCC/C=C/C(C)C)ccc1O` [Capsaicin] the efficacy was -16.7%.
